Patent publication US20250281627A1, “CANCER-TARGETING PEPTIDE, PRODRUG NANOPARTICLES COMPRISING SAME, AND PHARMACEUTICAL COMPOSITION COMPRISING SAME FOR CANCER PREVENTION OR TREATMENT” (priority 2022, published 2025)
Where a name gives a salt, the structure may show the parent alone. Read-outs that look alike come from different tables or passages of the source. Residues, ends and D or L forms follow the SMILES beside them. No end group written: not given here. *: point of attachment. Doxorubicin(3'-N) = COc1cccc2c1C(=O)c1c(O)c3c(c(O)c1C2=O)C[C@@](O)(C(=O)CO)C[C@@H]3O[C@H]1C[C@H](N*)[C@H](O)[C@H](C)O1; acyl = not defined here; DOX = doxorubicin

Columns and labels:
tumor-free BALB/c mice [1] = conditions: multiple administration; for body weight change: once in 3 days, 8 times
Procedure: 8 days later, the mice were euthanized and liver, lung, spleen, kidney, heart and cancer tissues were recovered. Each of the recovered liver, lung, spleen, kidney, heart and cancer tissues was fixed with 4% paraformaldehyde for 15 minutes, embedded in wax, and then sliced to 10 μm-thick sections. Then, after staining with H&E, the morphological damage to the tissues was analyzed by imaging with an optical microscope.
(§3) For evaluation of hematotoxicity, 1 mL of blood was taken from each test group, and blood plasma was separated by centrifuging at 4,500 rpm for 20 minutes. Blood analysis was performed according to the instructions of KNOTUS Co., Ltd. (Incheon, Korea).

HT29 cells [2] = test: cells; type: cell-based, human; conditions: 48 hours; for IC50: CCK-8
Procedure: (§1) In addition, cytotoxicity was investigated using CCK-8 (cell counting kit-8). Specifically, 1×10^4 HT29 cells and 0.5×10^4 H9C2 cells were seeded onto a 96-well plate, respectively, and stabilized by culturing for 24 hours. A single administration group, drug administration groups and a control group were obtained by administering the anticancer agent (DOX) alone (0.01 to 100 μM) or together with the prodrug nanoparticles of Example 4 and Comparative Example 3 (0.01 to 100 μM), respectively, to each well and incubating at 37° C. for 48 hours. After the incubation was completed, a culture medium containing a 10% CCK-8 solution was added. After conducting reaction for 20 minutes, analysis was made with a microplate reader at a wavelength of 450 nm. After plotting cell survivability depending on concentration, IC50 (half-maximal inhibitory concentration) values were obtained for the single administration group, drug administration groups and control group using the GraphPad Prism 8 software (GraphPad Software, San Diego, CA, USA).

H9C2 cells [3] = test: Cell-specific activity, DOX fluorescence distribution (CLSM); type: cell-based, rat; conditions: 5 μM, 48 hours
Procedure: (§2) Then, experiment was performed as follows to analyze specific activity for cells. First, 2×10^5 HT29 cells and 2×10^5 H9C2 cells were seeded onto a glass-bottomed confocal dish, respectively. Cathepsin B-inhibited cells (HT29-Inh) were prepared by pretreating HT29 cells with Z-Phe-Ala-FMK (20 μM) for 24 hours. After stabilizing the cells by culturing for 24 hours, and administering the anticancer agent (DOX) alone (5 μM) or together with the prodrug nanoparticles of Example 4 and Comparative Example 3 (5 μM), respectively, a single administration group, drug administration groups and a control group were obtained by incubating at 37° C. for 48 hours. […] Each group was imaged by CLSM to obtain a fluorescence image, and fluorescence intensity was quantified from the fluorescence image to investigate the distribution of the prodrug nanoparticles using the Image-Pro software (Media Cybernetics, Rockville, MD, USA).

H9C2 cells [4] = test: Cytotoxicity CCK-8; type: cell-based, rat; conditions: for IC50: 48 hours, CCK-8, normal cells (cardiomyocytes)
Procedure: as §1

[5] = system: Cathepsin B-inhibited cells (HT29-Inh); test: Cell-specific activity, DOX fluorescence distribution (CLSM); type: cell-based, human; conditions: HT29-Inh cells (Z-Phe-Ala-FMK 20 μM pretreated), 5 μM, 48 hours
Procedure: as §2

[6] = system: HT29 tumor-bearing BALB/c nu/nu mice; conditions: mouse, in vivo, iv
Procedure: (§4) 1×10^7 HT29 cells were subcutaneously injected into the left flank of the 5-week-old male BALB/c nu/nu mice. An animal model of cancer was prepared by breeding the mice until the tumor size grew to about 60 to 80 mm^3.
(§5) Test groups 6 to 8 were prepared by injecting an anticancer agent (DOX) (3 mg/kg) or the prodrug nanoparticles of Example 4 (4 or 10 mg/kg based on DOX concentration) to the animal model of cancer via the tail vein once in 3 days at the same time (n=5 for each test group). The overall treatment period was 26 days, and the number of drug administration was 8 times.
(§6) After the treatment period, tumor volume, body weight and survival rate of each test group were measured every 2 days. After euthanasia, liver, lung, spleen, kidney, heart and cancer tissues were recovered and subjected to histological and TUNEL assay.
(§7) The tumor volume was calculated from the longest diameter×(the shortest diameter)^2×0.53 of the cancer tissue, and a tumor volume larger than 1,000 mm^3 was judged as death.
(§8) For histological analysis, each of the recovered liver, lung, spleen, kidney, heart and cancer tissues was fixed with 4% paraformaldehyde for 15 minutes, embedded in wax, and then sliced to 10 μm-thick sections. Then, after staining with H&E, the morphological damage to the tissues was analyzed by imaging with an optical microscope.
(§9) The cancer tissue was stained by TUNEL (terminal deoxynucleotidyl transferase dUTP nick end labeling) analysis for visualization of the apoptotic region.

[7] = system: HT29 tumor-bearing BALB/c nu/nu mice; test: Distribution of prodrug nanoparticles in vivo (fluorescence imaging, ex vivo organs, tissue sections)
Procedure: After 3, 6 and 9 hours of the drug injection, the test groups were imaged using an IVIS Lumina Series III system. After euthanasia, liver, lung, spleen, kidney, heart and tumor tissues were recovered.
The obtained tissues were sliced into 10 μm-thick sections, which were mounted individually on a slide glass, and washed tice with DPBS. Then, after staining with […] for 20 minutes, fluorescence signals were observed by CLSM.

[8] = system: HT29 tumor-bearing BALB/c nu/nu mice; test: Anticancer effect in animal model of cancer
Procedure: as §4, §5, §6, §7, §8, §9

tumor-free BALB/c mice [9] = test: Toxicity in vivo, single administration; conditions: single i.v. administration
Procedure: Test groups 9 to 12 were prepared by injecting an anticancer agent (DOX) (3 or 4 mg/kg) or the prodrug nanoparticles of Example 4 (4 or 10 mg/kg based on DOX concentration) once to tumor-free BALB/c mice (5-week-old) via the tail vein (n=5 for each test group).
Tumor volume, body weight and survival rate were measured every day after injection of the drug to the test groups. 8 days later, the mice were euthanized and liver, lung, spleen, kidney, heart and cancer tissues were recovered. Each of the recovered liver, lung, spleen, kidney, heart and cancer tissues was fixed with 4% paraformaldehyde for 15 minutes, embedded in wax, and then sliced to 10 μm-thick sections. Then, after staining with H&E, the morphological damage to the tissues was analyzed by imaging with an optical microscope.
as §3

[10] = system: T1, FRRL-DOX conjugate / prodrug nanoparticles of Example 4 (N-acylated Phe-Arg-Arg-Leu conjugated with doxorubicin)
T1 sequence: FRRG

Cytotoxicity CCK-8 = type: cell-based, rat; conditions: rat, H9C2 cells; at 1 to 100 μM, 48 hours; read-out: survival rate of normal cells
Procedure: as §1

HT29 cells [11] = test: Degradation after cellular uptake (MALDI-TOF of cell filtrate); type: cell-based, human; conditions: 100 μM, 48 hours
Procedure: In order to further investigate whether the prodrug nanoparticles are degraded after cellular uptake, 1×10^6 HT29 cells were seeded onto a 100-mm cell culture dish and stabilized by culturing for 24 hours. After administering the prodrug nanoparticles of Examples 4 to 6 and Comparative Example 3 (100 μM) to the cells, drug administration groups 1, 2 and 3 (FRRL-DOX, FRRLG-DOX, FLRRG-DOX) and a control group (FRRG-DOX) were obtained by incubating at 37° C. for 48 hours. Each group was washed with PBS and dispersed in distilled water (H2O). The dispersion was filtered through a 0.45-μm syringe filter, and the recovered filtrate was subjected to mass analysis by MALDI-TOF.

HT29 colon cancer cells = test: Cellular uptake and intranuclear localization (CLSM); type: cell-based, human; conditions: 5 μM
Procedure: The cellular uptake and intranuclear localization of the prodrug nanoparticles (5 μM) were analyzed using HT29 colon cancer cells. In order to investigate the intracellular behavior and intracellular interaction of the prodrug nanoparticles, 2×10^5 HT29 cells were seeded onto a glass-bottomed confocal dish. After stabilizing the cells by culturing for 24 hours, they were treated with the prodrug nanoparticles of Examples 4 to 6 and Comparative Example 3 (5 μM), and drug administration groups 1, 2 and 3 (FRRL-DOX, FRRLG-DOX, FLRRG-DOX) and a control group (FRRG-DOX) were obtained by incubating at 37° C. for 0, 24 and 48 hours. […] Each group was imaged by CLSM to obtain a fluorescence image, and fluorescence intensity was quantified from the fluorescence image to investigate the distribution of the prodrug nanoparticles using the Image-Pro software (Media Cybernetics, Rockville, MD, USA).

[12] = biological target: lysosome enzymes other than cathepsin B; test: cell-based or functional assay
[13] = i.v. once in 3 days, test group 6
[14] = test group 4, 4 mg/kg based on DOX

In the case of `COc1cccc2c1C(=O)c1c(O)c3c(c(O)c1C2=O)C[C@@](O)(C(=O)CO)C[C@@H]3O[C@H]1C[C@H](N)[C@H](O)[C@H](C)O1` [DOX, Doxorubicin hydrochloride], the hematotoxicity (tumor-free BALB/c mice [1]) is reported as “significant hematotoxicity”, the “histochemical analysis of organ tissues (H&E)” value (from here on “histochemical analysis”) (tumor-free BALB/c mice [1]) is reported as “normal tissues were destroyed and damaged” and the “all the mice died within” value (tumor-free BALB/c mice [1]; DOX 3 and 4 mg/kg) is reported as at most 20 days. The “levels of hemoglobin and hematocrit” value (tumor-free BALB/c mice [1]; DOX 3 and 4 mg/kg) was “outside normal ranges”, the body weight change (tumor-free BALB/c mice [1]) was “rapid body weight decrease” and the IC50 (HT29 cells [2]; Homo sapiens, HT-29) was 0.12 µM. For the same molecule, the “location of fluorescence of anticancer agent (DOX)” value (H9C2 cells [3]) was “penetrated into the cell nucleus”, the “survival rate in tumor cells versus normal cells” value (H9C2 cells [4]; HT29 versus H9C2) was “no difference in the survival rate” and the IC50 (H9C2 cells [4]; Rattus norvegicus, H9c2) was 0.12 µM. For the same molecule, the “location of fluorescence of anticancer agent (DOX)” value [5] was “penetrated into the cell nucleus”, the systemic toxicity [6] was “severe systemic toxicity” and the “red fluorescence (DOX) in cancer tissue sections” value ([7]; 4 mg/kg i.v., confocal, DAPI) was “hardly observed”. For the same molecule, the “fluorescence intensity in kidney tissues relative to cancer tissues” value ([7]; 4 mg/kg i.v., test group 1) was 8.8 times, the “histopathological analysis of cancer tissue” value ([8]; H&E, after treatment) was “relatively weak damage of the cancer tissue” and the “TUNEL assay of cancer tissue (green fluorescence)” value ([8]; after treatment) was “weak green fluorescence”. The “all the mice died within” value [8, 13] was at most 20 days, the death observed within [8, 13] was at most 5 days and the “histochemical analysis” value (tumor-free BALB/c mice [9]) was “damaged severely”. For the same molecule, the body weight decrease (tumor-free BALB/c mice [9]; 3 and 4 mg/kg) was at least 9%.

With “Cathepsin B (purchased from R&D Systems), enzyme in solution” the “RP-HPLC peaks of conjugate and cleavage product over reaction time” value [10] was “a peak of L-DOX was observed at 14.7 minutes 3 hours after the reaction. The peak of the FRRL-DOX conjugate began to decrease and was not detected at all 24 hours after the reaction”.

With `COc1cccc2c1C(=O)c1c(O)c3c(c(O)c1C2=O)C[C@@](O)(C(=O)CO)C[C@@H]3O[C@H]1C[C@H](NC(=O)CNC(=O)[C@H](CCCNC(=N)N)NC(=O)[C@H](CCCNC(=N)N)NC(=O)[C@H](Cc2ccccc2)NC(C)=O)[C@H](O)[C@H](C)O1` [Comparative Example 3] (Ac-FRRG-{Doxorubicin(3'-N)}) the IC50 (HT29 cells [2]) was 14.1 µM, the IC50 (H9C2 cells [4]) was 158 µM and the “accumulation in liver tissues relative to cancer tissues” value ([7]; test group 2, 4 mg/kg based on DOX, i.v.) was 2.4 times. The “accumulation in liver tissues relative to cancer tissues” value ([7]; test group 3, 10 mg/kg based on DOX, i.v.) was 6.7 times.

In the case of `COc1cccc2c1C(=O)c1c(O)c3c(c(O)c1C2=O)C[C@@](O)(C(=O)CO)C[C@@H]3O[C@H]1C[C@H](NC(=O)[C@H](CC(C)C)NC(=O)[C@H](CCCNC(=N)N)NC(=O)[C@H](CCCNC(=N)N)NC(=O)[C@H](Cc2ccccc2)NC(C)=O)[C@H](O)[C@H](C)O1` [Example 4] (Ac-FRRL-{Doxorubicin(3'-N)}), the hematotoxicity (tumor-free BALB/c mice [1]) is reported as “no hematotoxicity”, the “histochemical analysis” value (tumor-free BALB/c mice [1]) is reported as “no significant damage of organ tissues” and the “all the mice survived healthily for” value (tumor-free BALB/c mice [1]; 4 and 10 mg/kg based on DOX) is reported as “more than 26 days”. The body weight change (tumor-free BALB/c mice [1]) was “no body weight change”, the IC50 (HT29 cells [2]) was 6.13 µM and the “survival rate of cancer cells” value (HT29 cells [2]; at 1 to 100 μM) was 0%. For the same molecule, the IC50 (H9C2 cells [4]) was 182 µM, the viability at 48 h (Cytotoxicity CCK-8) was 80% and the “accumulation efficiency for cancer tissues (in vivo fluorescence imaging)” value ([7]; 4 mg/kg based on DOX, i.v., 9 hours, vs DOX alone or Comparative Example 3) was “significantly high accumulation efficiency for cancer tissues”. The “cancer-targeting ability (fluorescence of isolated cancer tissue), times higher than DOX” value ([7]; 4 mg/kg based on DOX, i.v., test group 4 vs 1) was 2.3 times, the “cancer-targeting ability (fluorescence of isolated cancer tissue), times higher than Comparative Example 3” value ([7]; 4 mg/kg based on DOX, i.v., test group 4 vs 2) was 1.4 times and the “accumulation in cancer tissues relative to kidney tissues” value ([7]; 4 and 10 mg/kg based on DOX, i.v., test groups 4 and 5) was at least 2 times. For the same molecule, the “accumulation efficiency for liver tissues, times lower than Comparative Example 3” value ([7]; first of two printed values (4 and 10 mg/kg groups)) was 2.4 times, the “accumulation efficiency for liver tissues, times lower than Comparative Example 3” value ([7]; second of two printed values (4 and 10 mg/kg groups)) was 4.8 times and the “red fluorescence in cancer tissue sections, times stronger than test group 1” value [7, 14] was 6.7 times. For the same molecule, the “red fluorescence in cancer tissue sections, times stronger than test group 3” value [7, 14] was 2.6 times, the systemic toxicity ([8]; repeated i.v. administration in tumor-bearing mice) was “no severe systemic toxicity” and the “histochemical analysis” value (tumor-free BALB/c mice [9]) was “no damaged organ tissue”. For the same molecule, the body weight change (tumor-free BALB/c mice [9]; 4 and 10 mg/kg based on DOX) was “no significant change in body weight”.

In the case of “Example 6: conjugate of N-terminally acylated peptide Phe-Leu-Arg-Arg-Gly (SEQ ID NO: 3) and doxorubicin; self-assembled prodrug nanoparticles (acyl-FLRRG-{DOX}; reading uncertain; also: printed as FLRRG-DOX)”, the “degradation of prodrug nanoparticles in the cancer cells (MALDI-TOF)” value (HT29 cells [11]) is reported as “slightly low sensitivity to cathepsin B”, the “anticancer agent (DOX) delivered into the nucleus (ratio of accumulation in the nucleus)” value (HT29 colon cancer cells; 48 h, fluorescence intensity nucleus vs cytoplasm) is reported as 21% and the “location of red fluorescence (DOX) in the cells” value (HT29 colon cancer cells; confocal images) is reported as “mainly in the region other than the nucleus”.

In the case of FRRLG-{DOX} (not fully specified (N-terminus); printed as FRRLG-DOX), the degradation ratio (%) [12] is reported as under 5%.

Work on FLRRG-{DOX} (not fully specified (N-terminus); printed as FLRRG-DOX) yielded a degradation ratio (%) [12] of under 5%.
